One test concerns the target T1, TMPRSS2 (Homo sapiens, UniProt O15393).
T1 construct: expressed in transfected cells
Description: cell-based. Conditions: overexpressing cell system; read-out: IC50 against TMPRSS2 (converted).

The test system of another test is IL-6. The test can be described thus: IL-6 secretion in IMG microglial cells after LPS (ELISA). It counts as cell-based. Conditions: IMG microglial cells, LPS 100 ng/ml, 24 hours.
The subject of the next test is NFκB. Description: NFκB reporter assay (SEAP) in THP1-XBlue-MD2-CD14 cells after LPS. It counts as cell-based. On the procedure:
The NFκB inducible Secreted Embryonic Alkaline Phosphatase (SEAP) was measured in the supernatant and read for absorbance.
(§1) Various SERPIN peptide derivatives were screened in vitro for their ability to reduce TNFα and NFκB secretion via LRP-1 activation. The NFκB reporter cells (THP1-XBlue-MD2-CD14 cells) were treated with each peptide derivative at various concentrations, up to 100 μg/ml before being insulted with LPS (5 ng/ml) and incubated overnight. The NFκB inducible Secreted Embryonic Alkaline Phosphatase (SEAP) was measured in the supernatant and read for absorbance. IMG Microglial cells were treated with each peptide derivative at various concentrations, up to 100 μg/ml before LPS (100 ng/ml) stimulation for 24 hours. An ELISA was used to measure TNFα in the supernatant ([…]).

In a further test the test system is TNFα. Description: TNFα secretion in IMG microglial cells after LPS (ELISA). The format is cell-based. The conditions noted are these: FIG. 6A/7, up to 50 μg/mL, LPS 100 ng/ml 24 hours; versus SP163M, SA7. How it is done:
In the NFκB reporter cells, the NFκB inducible Secreted Embryonic Alkaline Phosphatase (SEAP) was measured in the supernatant. TNFα secretion in the supernatant was measured via ELISA.
as §1

Positions of bridges follow the written chain, without caps; N, C: chain ends. Non-standard residues stand in square brackets, D forms with d. Residues, ends and D or L forms follow the SMILES beside them. Nle = CCCC[C@H](N)C(=O)O

T1 sequence (O15393 whole entry): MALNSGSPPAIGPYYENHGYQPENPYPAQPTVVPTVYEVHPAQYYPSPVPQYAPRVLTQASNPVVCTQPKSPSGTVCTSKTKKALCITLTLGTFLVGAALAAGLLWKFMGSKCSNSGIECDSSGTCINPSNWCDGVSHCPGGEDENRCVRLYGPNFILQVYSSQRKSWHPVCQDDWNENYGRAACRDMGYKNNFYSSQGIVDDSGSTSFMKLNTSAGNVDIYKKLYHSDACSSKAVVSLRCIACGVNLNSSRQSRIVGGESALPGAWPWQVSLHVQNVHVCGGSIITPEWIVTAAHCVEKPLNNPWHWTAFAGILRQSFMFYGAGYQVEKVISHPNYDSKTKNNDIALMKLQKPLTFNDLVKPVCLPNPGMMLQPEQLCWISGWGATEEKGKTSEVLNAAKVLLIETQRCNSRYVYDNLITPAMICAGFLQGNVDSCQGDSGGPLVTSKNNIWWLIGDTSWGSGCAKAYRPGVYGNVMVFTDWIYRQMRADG

For the molecule `CCCC[C@@H]1NC(=O)[C@H](CC(C)C)NC(=O)[C@H](Cc2ccccc2)NC(=O)[C@H](C(C)C)NC(=O)[C@H](Cc2ccccc2)NC(=O)[C@@H]2CCCN2C(=O)[C@@H](NC(=O)[C@H](CCCNC(=N)N)NC(=O)[C@H](CCCNC(=N)N)NC(=O)[C@H](CCCNC(=N)N)NC(C)=O)CSSC[C@@H](C(=O)O)NC1=O` [SA7] (Ac-RRRCPFVFL[Nle]C-OH; disulfide 4-11), the IC50 on TMPRSS2 is 57.2 nM.

Regarding “Ac- RRRKFT[Nal]]LD (cyclic) [Peptide A3-7]”, in the test with IL-6, the “EC50 IL-6” value stood at 3.651 µg/mL. The “EC50 NFκB” value in the test on NFκB (NFκB reporter cells, LPS 5 ng/ml) came to 22.41 µg/mL.

Take “HN-RRRFVFLAD (cyclic) (not fully specified; cyclised or stapled) [Peptide A2-3]”: the “activity in reducing TNFα” value with TNFα is “superior activities in reducing TNFα”. Further, the “activity in reducing NFκB activation” value in the test on NFκB (FIG. 6B/7, up to 50 μg/mL, LPS 5 ng/ml 24 hours, versus SP163M, SA7) is on record as “superior activities”.
